Legend:
adenosine A2B receptor = adenosine A2B receptor (Homo sapiens (Human), UniProt P29275); assay: Adenosine receptor activity assay (Table 1), A2B activity; type: biochemical; settings: for IC50: read-out: Ave A2B cAMP IC50
adenosine A2A receptor = adenosine A2A receptor (Homo sapiens (Human), UniProt P29274); assay: Adenosine receptor activity assay (Table 1), A2A activity; type: biochemical; settings: read-out: Ave A2A cAMP IC50
[1] = A2A activity to A2B activity (A2A/A2B)

Chain of adenosine A2B receptor (P29275 whole entry): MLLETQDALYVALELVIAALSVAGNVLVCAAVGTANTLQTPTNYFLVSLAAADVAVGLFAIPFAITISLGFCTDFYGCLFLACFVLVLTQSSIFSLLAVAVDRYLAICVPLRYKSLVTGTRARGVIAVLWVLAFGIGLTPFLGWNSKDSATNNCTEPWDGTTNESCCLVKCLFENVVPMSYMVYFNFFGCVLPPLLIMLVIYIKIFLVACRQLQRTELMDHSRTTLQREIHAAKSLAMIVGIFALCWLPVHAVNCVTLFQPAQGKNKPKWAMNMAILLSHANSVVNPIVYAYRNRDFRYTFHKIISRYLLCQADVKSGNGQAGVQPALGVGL
Chain of adenosine A2A receptor (P29274 whole entry): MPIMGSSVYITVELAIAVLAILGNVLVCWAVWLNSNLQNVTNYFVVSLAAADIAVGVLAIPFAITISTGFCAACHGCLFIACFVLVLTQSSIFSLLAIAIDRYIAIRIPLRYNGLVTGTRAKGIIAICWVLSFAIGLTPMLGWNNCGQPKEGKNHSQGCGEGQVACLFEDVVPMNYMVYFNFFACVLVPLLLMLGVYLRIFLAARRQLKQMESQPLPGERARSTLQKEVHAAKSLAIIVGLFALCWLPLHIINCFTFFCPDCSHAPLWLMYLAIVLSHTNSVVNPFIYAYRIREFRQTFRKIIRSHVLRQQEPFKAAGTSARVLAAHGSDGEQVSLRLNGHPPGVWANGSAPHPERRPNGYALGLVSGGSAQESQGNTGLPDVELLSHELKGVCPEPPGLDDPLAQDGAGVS

Ratio (adenosine A2B receptor; [1]) | IC50 (adenosine A2B receptor) [nM] | IC50 (adenosine A2A receptor) [nM] | Ratio (adenosine A2B receptor; A2A activity to the A2B activity, A2A/A2B) | Compound
1.86 | > 500 | > 500 |  | C[C@H](Nc1nc(C(=O)N2CC[C@@H](N)C2)c2sccc2n1)c1cccnc1 [Example Z366, ((R)-3-Aminopyrrolidin-1-yl)(2-(((S)-1-(pyridin-3-yl)ethyl)amino)thieno[3,2-d]pyrimidin-4-yl)methanone]
5.78 | > 500 | > 500 |  | C[C@H](Nc1nc(C(=O)N2CC[C@H](N)C2)c2sccc2n1)c1cccnc1 [Example Z367, ((S)-3-Aminopyrrolidin-1-yl)(2-(((S)-1-(pyridin-3-yl)ethyl)amino)thieno[3,2-d]pyrimidin-4-yl)methanone]
2.26 | > 500 | > 500 |  | O=C(NC[C@H]1CCCN1)c1nc(NCc2cncc(F)c2)nc2ccsc12 [Example Z369, (R)-2-(((5-Fluoropyridin-3-yl)methyl)amino)-N-(pyrrolidin-2-ylmethyl)thieno[3,2-d]pyrimidine-4-carboxamide]
11.56 | > 500 | > 500 |  | N[C@H]1CCN(C(=O)c2nc(NCc3cc(F)cc(F)c3)nc3ccsc23)C1 [Example Z371, (S)-(3-Aminopyrrolidin-1-yl)(2-((3,5-difluorobenzyl)amino)thieno[3,2-d]pyrimidin-4-yl)methanone]
33.10 | 50 to 100 | > 500 |  | Cc1cc2nc(N[C@@H](C)c3cncc(F)c3)nc(C(=O)NCCN3CCOCC3)c2s1 [Example Z372, (S)-2-((1-(5-Fluoropyridin-3-yl)ethyl)amino)-6-methyl-N-(2-morpholinoethyl)thieno[3,2-d]pyrimidine-4-carboxamide]
7.89 | 10 to 50 | 100 to 500 |  | Cc1cc2nc(N[C@@H](C)c3cccnc3)nc(C(=O)NCC3CCOCC3)c2s1 [Example Z375, (S)-6-Methyl-2-((1-(pyridin-3-yl)ethyl)amino)-N-((tetrahydro-2H-pyran-4-yl)methyl)thieno[3,2-d]pyrimidine-4-carboxamide]
39.59 | 100 to 500 | > 500 |  | Cc1cc2nc(N[C@@H](C)c3cccnc3)nc(C(=O)NCC3CCNCC3)c2s1 [Example Z377, (S)-6-Methyl-N-(piperidin-4-ylmethyl)-2-((1-(pyridin-3-yl)ethyl)amino)thieno[3,2-d]pyrimidine-4-carboxamide]
15.93 | 100 to 500 | > 500 |  | Cc1cc2nc(N[C@@H](C)c3cccnc3)nc(C(=O)NCCN3CCOCC3)c2s1 [Example Z378, (S)-6-Methyl-N-(2-morpholinoethyl)-2-((1-(pyridin-3-yl)ethyl)amino)thieno[3,2-d]pyrimidine-4-carboxamide]
68.03 | 100 to 500 | > 500 |  | C[C@H](Nc1nc(C(=O)N2CCC(C(=O)O)C2)c2sccc2n1)c1cncc(F)c1 (stereo partly drawn) [Example Z379, 1-(2-(((S)-1-(5-Fluoropyridin-3-yl)ethyl)amino)thieno[3,2-d]pyrimidine-4-carbonyl)pyrrolidine-3-carboxylic acid]
13.21 | > 500 | > 500 |  | C[C@H](Nc1nc(C(=O)N2CCC(C(=O)O)C2)c2sccc2n1)c1ccccn1 (stereo partly drawn) [Example Z380, 1-(2-(((S)-1-(Pyridin-2-yl)ethyl)amino)thieno[3,2-d]pyrimidine-4-carbonyl)pyrrolidine-3-carboxylic acid]
47.20 | 10 to 50 | > 500 |  | C[C@H](Nc1nc(C(=O)N2CCNC2)c2sccc2n1)c1cncc(F)c1 [Example Z381, (S)-(2-((1-(5-Fluoropyridin-3-yl)ethyl)amino)thieno[3,2-d]pyrimidin-4-yl)(imidazolidin-1-yl)methanone]
7.44 | 50 to 100 | > 500 |  | C[C@H](Nc1nc(C(=O)NCCc2ccc(Cl)cc2)c2sccc2n1)c1cncc(F)c1 [Example Z385, (S)—N-(4-Chlorophenethyl)-2-((1-(5-fluoropyridin-3-yl)ethyl)amino)thieno[3,2-d]pyrimidine-4-carboxamide]
20.10 | 50 to 100 | > 500 |  | Cc1cc2nc(N[C@@H](C)c3cccnc3)nc(C(=O)NC[C@@H]3CCOC3)c2s1 [Example Z387, 6-Methyl-2-(((S)-1-(pyridin-3-yl)ethyl)amino)-N—(((S)-tetrahydrofuran-3-yl)methyl)thieno[3,2-d]pyrimidine-4-carboxamide]
10.69 | 50 to 100 | > 500 |  | Cc1cc2nc(N[C@@H](C)c3cccnc3)nc(C(=O)NC[C@H]3CCOC3)c2s1 [Example Z388, 6-Methyl-2-(((S)-1-(pyridin-3-yl)ethyl)amino)-N—(((R)-tetrahydrofuran-3-yl)methyl)thieno[3,2-d]pyrimidine-4-carboxamide]
0.87 | 100 to 500 | 100 to 500 |  | C[C@H](NC(=O)c1nc(N[C@@H](C)c2ccccc2)nc2ccsc12)c1ccccc1 [Example Z394, N—((S)-1-Phenylethyl)-2-(((S)-1-phenylethyl)amino)thieno[3,2-d]pyrimidine-4-carboxamide]
32.64 | 10 to 50 | 100 to 500 |  | C[C@H](Nc1nc(C(=O)N[C@@H]2CC[C@@H](O)C2)c2sccc2n1)c1cncc(F)c1 [Example Z395, 2-(((S)-1-(5-Fluoropyridin-3-yl)ethyl)amino)-N-((1R,3R)-3-hydroxycyclopentyl)thieno[3,2-d]pyrimidine-4-carboxamide]
6.83 | > 500 | > 500 |  | C[C@H](Nc1nc(C(=O)N(C)CCc2ccc(O)cc2)c2sccc2n1)c1cncc(F)c1 [Example Z396, (S)-2-((1-(5-Fluoropyridin-3-yl)ethyl)amino)-N-(4-hydroxyphenethyl)-N-methylthieno[3,2-d]pyrimidine-4-carboxamide]
11.51 | > 500 | > 500 |  | C[C@H](Nc1nc(C(=O)NC2CNC2)c2sccc2n1)c1cncc(F)c1 [Example Z397, (S)—N-(Azetidin-3-yl)-2-((1-(5-fluoropyridin-3-yl)ethyl)amino)thieno[3,2-d]pyrimidine-4-carboxamide]
2.82 | 100 to 500 | 100 to 500 |  | COc1ccc(Oc2cc(CNC(=O)c3nc(N[C@@H](C)c4cncc(F)c4)nc4ccsc34)ccn2)cc1 [Example Z398, (S)-2-((1-(5-Fluoropyridin-3-yl)ethyl)amino)-N-((2-(4-methoxyphenoxy)pyridin-4-yl)methyl)thieno[3,2-d]pyrimidine-4-carboxamide]
 | 10 to 50 | > 500 | 161.94 | CO[C@@H](C)CNC(=O)c1nc(N[C@@H](C)c2cccnc2)nc2cc(C)sc12 [Example Z399, N—((S)-2-Methoxypropyl)-6-methyl-2-(((S)-1-(pyridin-3-yl)ethyl)amino)thieno[3,2-d]pyrimidine-4-carboxamide]

Compound | Ratio (adenosine A2B receptor; [1]) | IC50 (adenosine A2B receptor) [nM] | IC50 (adenosine A2A receptor) [nM] | Ratio (adenosine A2B receptor; A2A activity to the A2B activity, A2A/A2B)
C[C@H](Nc1nc(C(=O)NC[C@H]2CCCN2)c2sccc2n1)c1ccccn1 [Example Z370, 2-(((S)-1-(pyridin-2-yl)ethyl)amino)-N—(((R)-pyrrolidin-2-yl)methyl)thieno[3,2-d]pyrimidine-4-carboxamide] | 1.81 | > 500 | > 500 | 

From patent US11254686B1 (Corvus Pharmaceuticals, Inc., priority 2017, dated 2022)
